Publication PMC6657233 (Translational Oncology, 2019)

Target: T1, adenosine transporter (AT; NBMPR-sensitive equilibrative nucleoside transporter subtype, ENT) (Homo sapiens, UniProt Q99808)
T1 sequence (Q99808 2-456): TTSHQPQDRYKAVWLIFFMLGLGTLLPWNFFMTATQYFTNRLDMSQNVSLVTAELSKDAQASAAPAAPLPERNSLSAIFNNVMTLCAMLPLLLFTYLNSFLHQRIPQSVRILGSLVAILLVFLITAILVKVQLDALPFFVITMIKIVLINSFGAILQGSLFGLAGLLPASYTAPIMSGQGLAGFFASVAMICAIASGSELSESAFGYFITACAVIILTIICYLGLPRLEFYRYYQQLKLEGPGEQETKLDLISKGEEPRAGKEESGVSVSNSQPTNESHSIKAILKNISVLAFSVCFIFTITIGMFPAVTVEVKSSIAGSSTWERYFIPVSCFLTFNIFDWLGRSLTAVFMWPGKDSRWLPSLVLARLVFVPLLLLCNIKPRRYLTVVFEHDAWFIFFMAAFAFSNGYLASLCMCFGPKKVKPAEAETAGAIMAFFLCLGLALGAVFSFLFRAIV
Experiment: [3H]adenosine uptake inhibition in HeLa cells
Format: cell-based
Conditions: read-out: Findings

## COCCOc1cnc2ccn([C@H](C)c3nnc4c(F)cc(-c5cnn(C)c5)cn34)c(=O)c2c1 [AMG 337]
  IC50: 280 nM
